Measurements reported in patent publication US9023789B2, “Amylin analogs and pharmaceutical compositions thereof” (Novo Nordisk A/S, priority 2012, dated 2015).
Numbered stars: 1 amine (or outer) side, 2 acyl side, 3 side chain; on linkers, the order of the positions; unused ones are H or OH. Bridge positions count the residues as written; N and C are the ends. Side chains are listed from the residue outwards. Peptide text beside a SMILES is read from it. * marks the point of attachment. C20 diacid = O=C(O)CCCCCCCCCCCCCCCCCCC(=O)*; γGlu = O=C(O)[C@H](CCC(=O)[*:2])N[*:1]

How the values were obtained:
[1] = biological target: T1, human amylin 3(a) receptor (human calcitonin receptor + RAMP-3) in BHK570 cells (Homo sapiens, UniProt O60896+P30988); assay: ASSAY (II)a functional assay, human amylin receptor (CRE luciferase); assay type: cell-based; conditions: for EC50: human amylin receptor functional potency, assay (II), read-out: hAmylin-R funct. EC50
T1 construct: expressed in transfected cells
Summary of the method: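 Read-out: CRE-driven luciferase luminescence, single photon counting, after 30 min at room temperature with LucLite. BHK cells expressed calcitonin receptor alone or with RAMP-3 (amylin 3(a)). Cells were stimulated 3 h at 37° C in DMEM, 10% FBS, 10 mM Hepes, pH 7.4.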

[2] = ASSAY (III) ThT fibrillation assay for physical stability; assay type: physicochemical
Summary of the method: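 Physical stability scored by ThT fluorescence (444 nm excitation, 485 nm emission) tracked every 20 min during 37 °C incubation with 960 rpm shaking, ThT at 1 μM final. Values are replicate means with SD at chosen times; HPLC against pramlintide standard gives initial and post-assay soluble concentrations.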

[3] = biological target: T2, human amylin receptor (membranes from Amylin 3(a)/CRE-luc cells) (Homo sapiens, UniProt O60896+P30988); assay: ASSAY (V) binding to the human amylin receptor (SPA, 125I-rat amylin); conditions: for IC50: Table 4, read-out: hAmylin-R bind IC50;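 as to all read-outs here: competition binding of cell membranes (35 ng/µL) mixed with SPA beads in 384-well plates at 40 µL total volume, read by scintillation counting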
T2 construct: expressed in transfected cells
T2 sequence (P30988 25-474): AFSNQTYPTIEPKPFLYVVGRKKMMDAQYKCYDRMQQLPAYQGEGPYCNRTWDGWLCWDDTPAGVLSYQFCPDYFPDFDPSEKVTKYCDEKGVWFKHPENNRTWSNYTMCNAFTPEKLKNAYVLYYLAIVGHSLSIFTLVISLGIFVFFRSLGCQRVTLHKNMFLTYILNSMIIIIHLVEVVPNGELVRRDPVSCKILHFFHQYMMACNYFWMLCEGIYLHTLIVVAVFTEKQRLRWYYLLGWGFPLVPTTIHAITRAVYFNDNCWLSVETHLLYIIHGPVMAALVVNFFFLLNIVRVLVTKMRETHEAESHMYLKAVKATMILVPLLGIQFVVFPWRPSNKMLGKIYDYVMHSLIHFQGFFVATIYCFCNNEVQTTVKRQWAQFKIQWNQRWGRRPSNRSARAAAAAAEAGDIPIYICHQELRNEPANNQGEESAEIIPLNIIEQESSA
T2 sequence (O60896 24-148 partner): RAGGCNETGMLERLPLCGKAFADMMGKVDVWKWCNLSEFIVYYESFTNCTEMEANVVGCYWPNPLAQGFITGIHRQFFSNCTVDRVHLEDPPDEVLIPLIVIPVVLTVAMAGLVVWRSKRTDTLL

[4] = hCTR funct. EC50 / hAmylin-R funct. EC50
[5] = hCTR funct. EC50 divided by hAmylin-R funct. EC50
[6] = hCTR funct. EC50 over hAmylin-R funct. EC50
[7] = human functional selectivity: hCTR funct. EC50 / hAmylin-R funct. EC50
[8] = Table 5, selectivity, hCTR bind IC50 / hAmylin-R bind IC50
[9] = Table 7, human binding selectivity, included for comparison
[10] = Table 5a, selectivity, hCTR bind IC50 / hAmylin-R bind IC50
[11] = Table 5b, selectivity, hCTR bind IC50 / hAmylin-R bind IC50
[12] = Table 7a (preferred compounds), human binding selectivity, included for comparison
[13] = ratio of human calcitonin receptor binding IC50 to human amylin receptor binding IC50

Ratio hCT/hAmylin funct. [1, 4]	Ratio hCT/hAmylin funct. [1, 5]	Ratio hCT/hAmylin funct. [1, 6]	Ratio hCT/hAmylin funct. [1, 7]	ThT pH 4.0 lag time (h) [2] [h]	Ratio hCT/hAmylin binding [3, 8]	Ratio hCT/hAmylin binding [3, 9]	EC50 [1] [nM]	IC50 [3] [nM]	Ratio hCT/hAmylin binding [3, 10]	Ratio hCT/hAmylin binding [3, 11]	Ratio hCT/hAmylin binding ([3]; Table 5c, selectivity, hCTR bind IC50 / hAmylin-R bind IC50)	Ratio hCT/hAmylin binding [3, 12]	Ratio hCT/hAmylin binding [3, 13]	SMILES
1.8	1.8	1.8	1.8	45	2.5	2.5								CC[C@H](C)[C@H](NC(=O)[C@H](C)NC(=O)CNC(=O)[C@H](Cc1ccccc1)NC(=O)[C@H](CC(N)=O)NC(=O)[C@@H]1CCCN1C(=O)[C@H](CO)NC(=O)[C@H](CO)NC(=O)[C@H](Cc1c[nH]cn1)NC(=O)[C@H](CCCNC(=N)N)NC(=O)[C@H](CC(C)C)NC(=O)[C@H](Cc1ccccc1)NC(=O)[C@H](CCC(=O)O)NC(=O)[C@H](C)NC(=O)[C@H](CC(C)C)NC(=O)[C@H](CCCNC(=N)N)NC(=O)[C@H](CCC(N)=O)NC(=O)[C@@H](NC(=O)[C@H](C)NC(=O)[C@@H]1CSSC[C@H](NC(=O)[C@@H](N)CCCCNC(=O)CC[C@H](NC(=O)CCCCCCCCCCCCCCCCCCC(=O)O)C(=O)O)C(=O)N[C@@H](CC(N)=O)C(=O)N[C@@H]([C@@H](C)O)C(=O)N[C@@H](C)C(=O)N[C@@H]([C@@H](C)O)C(=O)N1)[C@@H](C)O)C(=O)N1CCC[C@H]1C(=O)N[C@@H](CO)C(=O)N[C@@H](CO)C(=O)N[C@H](C(=O)N[C@@H](CC(N)=O)C(=O)N[C@H](C(=O)NCC(=O)N[C@@H](CO)C(=O)N[C@@H](CC(N)=O)C(=O)N[C@H](C(=O)N1CCC[C@H]1C(N)=O)[C@@H](C)O)C(C)C)[C@@H](C)O [Example 12] (H-K([γGlu-C20 diacid])CNTATCATQRLAEFLRHSSPNFGAIPSSTNVGSNTP-NH2; disulfide 2-7 (inferred); N-terminus assumed)
	8.9	8.9	8.9	45	26.0	26.0	0.386	0.597	26.0	26.0	26.0	26.0	26.0	CC[C@H](C)[C@H](NC(=O)[C@H](C)NC(=O)CNC(=O)[C@H](Cc1ccccc1)NC(=O)[C@H](CC(N)=O)NC(=O)[C@@H]1CCCN1C(=O)[C@H](CO)NC(=O)[C@H](CO)NC(=O)[C@H](Cc1c[nH]cn1)NC(=O)[C@H](CCCNC(=N)N)NC(=O)[C@H](CC(C)C)NC(=O)[C@H](Cc1ccccc1)NC(=O)[C@H](CCC(=O)O)NC(=O)[C@H](C)NC(=O)[C@H](CC(C)C)NC(=O)[C@H](CCCNC(=N)N)NC(=O)[C@H](CCC(N)=O)NC(=O)[C@@H](NC(=O)[C@H](C)NC(=O)[C@@H]1CSSC[C@H](NC(=O)[C@H](CCCCN)NC(=O)CC[C@H](NC(=O)CC[C@H](NC(=O)CCCCCCCCCCCCCCCCCCC(=O)O)C(=O)O)C(=O)O)C(=O)N[C@@H](CC(N)=O)C(=O)N[C@@H]([C@@H](C)O)C(=O)N[C@@H](C)C(=O)N[C@@H]([C@@H](C)O)C(=O)N1)[C@@H](C)O)C(=O)N1CCC[C@H]1C(=O)N[C@@H](CO)C(=O)N[C@@H](CO)C(=O)N[C@H](C(=O)N[C@@H](CC(N)=O)C(=O)N[C@H](C(=O)NCC(=O)N[C@@H](CO)C(=O)N[C@@H](CC(N)=O)C(=O)N[C@H](C(=O)N[C@@H](Cc1ccc(O)cc1)C(N)=O)[C@@H](C)O)C(C)C)[C@@H](C)O [Example 15] ({C20 diacid-γGlu-γGlu}-KCNTATCATQRLAEFLRHSSPNFGAIPSSTNVGSNTY-NH2; disulfide 2-7 (inferred))
	6.1	6.1	6.1	45	19.1	19.1			19.1	19.1		19.1	19.1	CC[C@H](C)[C@H](NC(=O)[C@H](C)NC(=O)CNC(=O)[C@H](Cc1ccccc1)NC(=O)[C@H](CC(N)=O)NC(=O)[C@@H]1CCCN1C(=O)[C@H](CO)NC(=O)[C@H](CO)NC(=O)[C@H](Cc1c[nH]cn1)NC(=O)[C@H](CCCNC(=N)N)NC(=O)[C@H](CC(C)C)NC(=O)[C@H](Cc1ccccc1)NC(=O)[C@H](CCC(=O)O)NC(=O)[C@H](C)NC(=O)[C@H](CC(C)C)NC(=O)[C@H](CCCNC(=N)N)NC(=O)[C@H](CCC(N)=O)NC(=O)[C@@H](NC(=O)[C@H](C)NC(=O)[C@@H]1CSSC[C@H](NC(=O)[C@H](CCCCN)NC(=O)CC[C@H](NC(=O)CCCCCCCCCCCCCCCCCCC(=O)O)C(=O)O)C(=O)N[C@@H](CC(N)=O)C(=O)N[C@@H]([C@@H](C)O)C(=O)N[C@@H](C)C(=O)N[C@@H]([C@@H](C)O)C(=O)N1)[C@@H](C)O)C(=O)N1CCC[C@H]1C(=O)N[C@@H](CO)C(=O)N[C@@H](CO)C(=O)N[C@H](C(=O)N[C@@H](CC(N)=O)C(=O)N[C@H](C(=O)NCC(=O)N[C@@H](CO)C(=O)N[C@@H](CCCNC(=N)N)C(=O)N[C@H](C(=O)N[C@@H](Cc1ccc(O)cc1)C(N)=O)[C@@H](C)O)C(C)C)[C@@H](C)O [Example 16] ({C20 diacid-γGlu}-KCNTATCATQRLAEFLRHSSPNFGAIPSSTNVGSRTY-NH2; disulfide 2-7)
	8.8	8.8	8.8	45	12.5	12.5	0.268	0.878	12.5			12.5	12.5	CC[C@H](C)[C@H](NC(=O)[C@H](C)NC(=O)CNC(=O)[C@H](Cc1ccccc1)NC(=O)[C@H](CC(N)=O)NC(=O)[C@@H]1CCCN1C(=O)[C@H](CO)NC(=O)[C@H](CO)NC(=O)[C@H](Cc1c[nH]cn1)NC(=O)[C@H](CCCNC(=N)N)NC(=O)[C@H](CC(C)C)NC(=O)[C@H](Cc1ccccc1)NC(=O)[C@H](CCC(=O)O)NC(=O)[C@H](C)NC(=O)[C@H](CC(C)C)NC(=O)[C@H](CCCNC(=N)N)NC(=O)[C@H](CCC(N)=O)NC(=O)[C@@H](NC(=O)[C@H](C)NC(=O)[C@@H]1CSSC[C@H](NC(=O)[C@H](CCCCN)NC(=O)CC[C@H](NC(=O)CCCCCCCCCCCCCCCCCCC(=O)O)C(=O)O)C(=O)N[C@@H](CC(N)=O)C(=O)N[C@@H]([C@@H](C)O)C(=O)N[C@@H](C)C(=O)N[C@@H]([C@@H](C)O)C(=O)N1)[C@@H](C)O)C(=O)N1CCC[C@H]1C(=O)N[C@@H](CO)C(=O)N[C@@H](CO)C(=O)N[C@H](C(=O)N[C@@H](CC(N)=O)C(=O)N[C@H](C(=O)NCC(=O)N[C@@H](Cc1c[nH]cn1)C(=O)N[C@@H](CC(N)=O)C(=O)N[C@H](C(=O)N[C@@H](Cc1ccc(O)cc1)C(N)=O)[C@@H](C)O)C(C)C)[C@@H](C)O [Example 17] ({C20 diacid-γGlu}-KCNTATCATQRLAEFLRHSSPNFGAIPSSTNVGHNTY-NH2; disulfide 2-7 (inferred))
4.8	4.8	4.8	4.8	45	9.2	9.2	0.154	0.554				9.2		CC[C@H](C)[C@H](NC(=O)[C@H](C)NC(=O)CNC(=O)[C@H](Cc1ccccc1)NC(=O)[C@H](CC(N)=O)NC(=O)[C@@H]1CCCN1C(=O)[C@H](CO)NC(=O)[C@H](CO)NC(=O)[C@H](Cc1c[nH]cn1)NC(=O)[C@H](CCCNC(=N)N)NC(=O)[C@H](CC(C)C)NC(=O)[C@H](Cc1ccccc1)NC(=O)[C@H](CCC(=O)O)NC(=O)[C@H](C)NC(=O)[C@H](CC(C)C)NC(=O)[C@H](CCCNC(=N)N)NC(=O)[C@H](CCC(N)=O)NC(=O)[C@@H](NC(=O)[C@H](C)NC(=O)[C@@H]1CSSC[C@H](NC(=O)[C@H](CCCCN)NC(=O)CC[C@H](NC(=O)CCCCCCCCCCCCCCCCCCC(=O)O)C(=O)O)C(=O)N[C@@H](CC(N)=O)C(=O)N[C@@H]([C@@H](C)O)C(=O)N[C@@H](C)C(=O)N[C@@H]([C@@H](C)O)C(=O)N1)[C@@H](C)O)C(=O)N1CCC[C@H]1C(=O)N[C@@H](CO)C(=O)N[C@@H](CO)C(=O)N[C@H](C(=O)N[C@@H](CC(N)=O)C(=O)N[C@H](C(=O)NCC(=O)N[C@@H](CO)C(=O)N[C@@H](Cc1c[nH]cn1)C(=O)N[C@H](C(=O)N[C@@H](Cc1ccc(O)cc1)C(N)=O)[C@@H](C)O)C(C)C)[C@@H](C)O [Example 18] ({C20 diacid-γGlu}-KCNTATCATQRLAEFLRHSSPNFGAIPSSTNVGSHTY-NH2; disulfide 2-7)
